PubChem BioAssay (NCI)
Several values for one entry are separate records, joined by “and”; a condition that tells them apart may be missing. Identical values can stand only once.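 A five-concentration, 48-hour dose response in 96-well plates underlies each endpoint, interpolated linearly between surrounding concentrations. At the GI50, growth is halved. TGI is the concentration that stops growth completely.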

Columns and labels:
Experiment in all cases: NCI tumour cell line growth inhibition, 48 h
EKVX NSCLC = tested on: EKVX NSCLC
HCT-15 colon = tested on: HCT-15 colon
KM12 colon = tested on: KM12 colon
MDA-MB-435 = tested on: MDA-MB-435
NCI-H23 lung = tested on: NCI-H23 lung
NCI/ADR-RES ovarian = tested on: NCI/ADR-RES ovarian
SF-268 CNS = tested on: SF-268 CNS
SW-620 colon = tested on: SW-620 colon
UO-31 renal = tested on: UO-31 renal
DLD-1 colon = tested on: DLD-1 colon

## CCOC(=O)Cn1c(C)nc2nn(Cc3ccccc3)cc2c1=O
EKVX NSCLC
  TGI: > 100 µM
HCT-15 colon
  TGI: > 100 µM
KM12 colon
  TGI: > 100 µM
MDA-MB-435
  TGI: > 100 µM
NCI-H23 lung
  TGI: > 100 µM
NCI/ADR-RES ovarian
  TGI: > 100 µM
SF-268 CNS
  TGI: > 100 µM
SW-620 colon
  TGI: > 100 µM
UO-31 renal
  TGI: > 100 µM

## O=c1[nH]nc(Cc2ccc([N+](=O)[O-])cc2)[nH]1
EKVX NSCLC
  TGI: > 100 µM
HCT-15 colon
  TGI: > 100 µM
KM12 colon
  TGI: > 100 µM
MDA-MB-435
  TGI: > 100 µM
NCI-H23 lung
  TGI: > 100 µM
NCI/ADR-RES ovarian
  TGI: > 100 µM
SF-268 CNS
  TGI: > 100 µM
SW-620 colon
  TGI: > 100 µM
UO-31 renal
  TGI: > 100 µM

## c1csc(-c2csc(-c3cccs3)c2)c1
EKVX NSCLC
  TGI: > 100 µM
HCT-15 colon
  TGI: > 100 µM
KM12 colon
  TGI: > 100 µM
MDA-MB-435
  TGI: > 100 µM
NCI-H23 lung
  TGI: 63.1 µM
NCI/ADR-RES ovarian
  TGI: > 100 µM
SF-268 CNS
  TGI: > 100 µM
SW-620 colon
  TGI: > 100 µM
UO-31 renal
  TGI: > 100 µM

## O.O=[Se](=O)(O)O.[NH-]C1CCCCC1[NH-].[Pt+2] (stereo not drawn)
DLD-1 colon
  GI50: 19 µM
  TGI: > 100 µM
EKVX NSCLC
  GI50: 36.1 µM
  TGI: > 100 µM
HCT-15 colon
  GI50: 8.39 µM
  TGI: > 100 µM
KM12 colon
  GI50: 47.2 µM
  TGI: > 100 µM
NCI-H23 lung
  GI50: 10.9 µM
  TGI: > 94.9 µM
NCI/ADR-RES ovarian
  GI50: 11.3 µM
  TGI: > 100 µM
SF-268 CNS
  GI50: 8.09 µM
  TGI: > 100 µM
SW-620 colon
  GI50: 2.11 µM
  TGI: > 100 µM
UO-31 renal
  GI50: 7.66 µM
  TGI: > 68 µM

## O=C(c1ccccc1)c1ccc2c(c1)N=C(c1ccc(Cl)c(Cl)c1)CC(c1ccc3ccccc3c1)N2 (stereo not drawn)
DLD-1 colon
  TGI: > 100 µM
EKVX NSCLC
  TGI: > 100 µM
HCT-15 colon
  TGI: > 100 µM
KM12 colon
  TGI: > 100 µM
NCI-H23 lung
  TGI: > 100 µM
SF-268 CNS
  TGI: > 100 µM
SW-620 colon
  TGI: > 100 µM
UO-31 renal
  TGI: > 100 µM

## Nc1ncc(Cc2nn3c(COc4ccc(Cl)cc4)nnc3s2)s1
EKVX NSCLC
  TGI: > 100 µM
HCT-15 colon
  TGI: 19.1 µM
KM12 colon
  TGI: > 100 µM
MDA-MB-435
  TGI: > 100 µM
NCI-H23 lung
  TGI: > 100 µM
NCI/ADR-RES ovarian
  TGI: > 100 µM
SF-268 CNS
  TGI: > 100 µM
SW-620 colon
  TGI: > 100 µM
UO-31 renal
  TGI: > 100 µM

## C=C1C(=O)O[C@H]2[C@@H](O)[C@H](C)CCC/C(C)=C/CC[C@@]3(C)O[C@@H]3C[C@@H]12
EKVX NSCLC
  TGI: 19 µM
HCT-15 colon
  TGI: 4.68 µM
KM12 colon
  TGI: 33.1 µM
MDA-MB-435
  TGI: 29.5 µM
NCI-H23 lung
  TGI: 21.8 µM
NCI/ADR-RES ovarian
  TGI: 37.9 µM
SF-268 CNS
  TGI: 22 µM
SW-620 colon
  TGI: 39.9 µM
UO-31 renal
  TGI: 18.2 µM

## Nc1ncnc2c(C3OC(CO)C(O)C3O)c[nH]c12 (stereo not drawn)
DLD-1 colon
  TGI: 0.0413 µM
EKVX NSCLC
  GI50: < 0.0171 µM
  TGI: 0.415 µM and 0.274 µM
HCT-15 colon
  TGI: 0.333 µM and 0.3 µM
KM12 colon
  TGI: 0.396 µM and 0.465 µM
MDA-MB-435
  TGI: 0.182 µM and 0.125 µM
NCI-H23 lung
  GI50: < 0.0104 µM
  TGI: 0.0792 µM and 0.0756 µM
SF-268 CNS
  TGI: 0.559 µM
UO-31 renal
  TGI: 0.118 µM and 0.258 µM

## COc1cccc2c1C(=O)c1c(O)c3c(c(O)c1C2=O)C[C@](O)(C(=O)CO)CC3OC1CC(N)C(OC2CCCCO2)C(C)O1 (stereo partly drawn)
DLD-1 colon
  TGI: 12.5 µM
EKVX NSCLC
  TGI: 3.43 µM
HCT-15 colon
  TGI: 5.14 µM
NCI-H23 lung
  TGI: 1.97 µM
NCI/ADR-RES ovarian
  TGI: 41.8 µM
SF-268 CNS
  TGI: 3.04 µM
SW-620 colon
  TGI: 6.48 µM
UO-31 renal
  TGI: 3.63 µM

## Cc1cn(C2CC(O)C(Cn3cc(Cn4nc(Br)c(=O)[nH]c4=O)nn3)O2)c(=O)[nH]c1=O (stereo not drawn)
EKVX NSCLC
  TGI: > 100 µM
HCT-15 colon
  TGI: > 100 µM
KM12 colon
  TGI: > 100 µM
MDA-MB-435
  TGI: > 100 µM
NCI-H23 lung
  TGI: > 100 µM
NCI/ADR-RES ovarian
  TGI: > 100 µM
SF-268 CNS
  TGI: > 100 µM
SW-620 colon
  TGI: > 100 µM
UO-31 renal
  TGI: > 100 µM

## O=C(NC(Cc1c[nH]c2ccccc12)C(=O)O)/C(=C/c1ccccc1)NC(=O)c1ccccc1 (stereo not drawn)
EKVX NSCLC
  TGI: > 100 µM
HCT-15 colon
  TGI: > 100 µM
KM12 colon
  TGI: > 100 µM
MDA-MB-435
  TGI: > 100 µM
NCI-H23 lung
  TGI: > 100 µM
NCI/ADR-RES ovarian
  TGI: > 100 µM
SF-268 CNS
  TGI: > 100 µM
SW-620 colon
  TGI: > 100 µM
UO-31 renal
  TGI: > 100 µM

## CCOC(=O)c1c(C)n(CCN2CCN(C)CC2)c2ccc(OC)cc12
EKVX NSCLC
  TGI: > 100 µM
HCT-15 colon
  TGI: 95.8 µM
KM12 colon
  TGI: > 100 µM
MDA-MB-435
  TGI: 56.2 µM
NCI-H23 lung
  TGI: > 100 µM
NCI/ADR-RES ovarian
  TGI: > 100 µM
SF-268 CNS
  TGI: > 100 µM
SW-620 colon
  TGI: > 100 µM
UO-31 renal
  TGI: > 100 µM

## CC(CN(C)C)C(O)(c1ccccc1)c1ccccc1 (stereo not drawn)
EKVX NSCLC
  TGI: > 100 µM
HCT-15 colon
  TGI: > 100 µM
KM12 colon
  TGI: > 100 µM
MDA-MB-435
  TGI: > 100 µM
NCI-H23 lung
  TGI: > 100 µM
NCI/ADR-RES ovarian
  TGI: > 100 µM
SF-268 CNS
  TGI: > 100 µM
SW-620 colon
  TGI: > 100 µM
UO-31 renal
  TGI: > 100 µM

## COc1cc(/C=C2\N=C(c3ccccc3)N(c3ccc(C(=O)c4ccccc4)cc3N3C(=O)/C(=C/c4cc(OC)c(OC)c(OC)c4)N=C3c3ccccc3)C2=O)cc(OC)c1OC
EKVX NSCLC
  TGI: 76.7 µM
HCT-15 colon
  TGI: 39.2 µM
KM12 colon
  TGI: 48.9 µM
MDA-MB-435
  TGI: 18.5 µM
NCI-H23 lung
  TGI: 41.6 µM
NCI/ADR-RES ovarian
  TGI: 34.1 µM
SF-268 CNS
  TGI: > 100 µM
SW-620 colon
  TGI: 40.7 µM
UO-31 renal
  TGI: 40.3 µM

## COC(=O)C1CC(C=O)=C(SC)N1 (stereo not drawn)
EKVX NSCLC
  TGI: > 50 µM
HCT-15 colon
  TGI: > 50 µM
KM12 colon
  TGI: > 50 µM
MDA-MB-435
  TGI: > 50 µM
NCI-H23 lung
  TGI: > 50 µM
NCI/ADR-RES ovarian
  TGI: > 50 µM
SF-268 CNS
  TGI: > 50 µM
SW-620 colon
  TGI: > 50 µM
UO-31 renal
  TGI: > 50 µM

## CCCNC(=O)Cn1c(-c2ccccc2)cc2ccccc21
EKVX NSCLC
  TGI: > 100 µM
HCT-15 colon
  TGI: > 100 µM
KM12 colon
  TGI: > 100 µM
MDA-MB-435
  TGI: > 100 µM
NCI-H23 lung
  TGI: > 100 µM
NCI/ADR-RES ovarian
  TGI: > 100 µM
SF-268 CNS
  TGI: > 100 µM
SW-620 colon
  TGI: > 100 µM
UO-31 renal
  TGI: > 100 µM

## CC[N+]1(C)CCC(O)(/C=C/c2ccc(Cl)c(Cl)c2)C(C(=O)/C=C/c2ccc(Cl)c(Cl)c2)C1 (stereo not drawn)
EKVX NSCLC
  TGI: 23.3 µM
HCT-15 colon
  TGI: 7.13 µM
KM12 colon
  TGI: 6.69 µM
MDA-MB-435
  TGI: 5.01 µM
NCI-H23 lung
  TGI: 7.03 µM
NCI/ADR-RES ovarian
  TGI: 6.63 µM
SF-268 CNS
  TGI: 8.54 µM
SW-620 colon
  TGI: 4.47 µM
UO-31 renal
  TGI: 3.67 µM

## C=CC(=O)N1C/C(=C\c2ccc(F)cc2)C(=O)/C(=C/c2ccc(F)cc2)C1
EKVX NSCLC
  TGI: 3.88 µM
HCT-15 colon
  TGI: 0.433 µM
KM12 colon
  TGI: 0.434 µM
MDA-MB-435
  TGI: 1.29 µM
NCI-H23 lung
  TGI: 3.32 µM
NCI/ADR-RES ovarian
  TGI: 20.1 µM
SF-268 CNS
  TGI: 0.622 µM
SW-620 colon
  TGI: > 100 µM
UO-31 renal
  TGI: 2.17 µM

## CNc1ccc([N+](=O)[O-])cc1C(=O)N1CCC[C@H]1CO
EKVX NSCLC
  TGI: > 100 µM
HCT-15 colon
  TGI: > 100 µM
KM12 colon
  TGI: > 100 µM
MDA-MB-435
  TGI: > 100 µM
NCI-H23 lung
  TGI: > 100 µM
NCI/ADR-RES ovarian
  TGI: > 100 µM
SF-268 CNS
  TGI: > 100 µM
SW-620 colon
  TGI: > 100 µM
UO-31 renal
  TGI: > 100 µM

## CCSc1nn(-c2c3ccccc3nc3ccccc23)c(=S)s1
EKVX NSCLC
  TGI: > 100 µM
HCT-15 colon
  TGI: > 100 µM
KM12 colon
  TGI: > 100 µM
MDA-MB-435
  TGI: > 100 µM
NCI-H23 lung
  TGI: > 100 µM
NCI/ADR-RES ovarian
  TGI: > 100 µM
SF-268 CNS
  TGI: > 100 µM
SW-620 colon
  TGI: > 100 µM
UO-31 renal
  TGI: > 100 µM
